In patent publication US10336762B2 (priority 2017, dated 2019):
Like-named read-outs stand apart in the source and are kept apart here.

Columns and labels:
[1] = target: IRAK4 enzyme (Homo sapiens (Human), UniProt Q9NWZ3); experiment: biochemical; assay type: biochemical; settings: IRAK4 enzyme, 500 μM ATP
[2] = system: TNFα; experiment: cells; assay type: cell-based, human; settings: Homo sapiens, Monocyte, LPS-stimulated human monocytes, read-out: EC50 TNF

Chain of IRAK4 enzyme (Q9NWZ3 whole entry): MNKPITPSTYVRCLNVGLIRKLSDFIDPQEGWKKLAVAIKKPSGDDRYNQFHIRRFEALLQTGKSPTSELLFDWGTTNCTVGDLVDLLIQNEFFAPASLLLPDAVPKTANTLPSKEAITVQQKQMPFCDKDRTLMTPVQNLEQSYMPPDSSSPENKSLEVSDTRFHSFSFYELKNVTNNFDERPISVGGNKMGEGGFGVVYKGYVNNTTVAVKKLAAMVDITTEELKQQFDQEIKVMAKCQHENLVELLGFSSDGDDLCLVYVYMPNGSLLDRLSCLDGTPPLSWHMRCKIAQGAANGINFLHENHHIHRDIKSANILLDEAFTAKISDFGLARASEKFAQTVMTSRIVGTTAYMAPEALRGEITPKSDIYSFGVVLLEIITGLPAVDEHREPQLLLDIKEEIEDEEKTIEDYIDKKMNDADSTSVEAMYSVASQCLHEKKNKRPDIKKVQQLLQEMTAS

With `CC(C)(O)[C@H](F)CNC(=O)c1cnc(-c2ccc3cc(C#N)cnn23)cc1NCCCCS(C)(=O)=O` [Example 438, (R)-6-(3-cyanopyrrolo[1,2-b]pyridazin-7-yl)-N-(2-fluoro-3-hydroxy-3-methylbutyl)-4-((4-(methylsulfonyl)butyl)amino)nicotinamide] the IC50 ([1]; TR-FRET (HTRF)) was 1 nM and the EC50 ([2]; TNFα content) was 135 nM.
`CC(C)Nc1cc(-c2ccc3cc(C#N)cnn23)ncc1C(=O)NNCC(C)(C)O` [Example 69, 6-(3-cyanopyrrolo[1,2-b]pyridazin-7-yl)-N′-(2-hydroxy-2-methylpropyl)-4-(isopropylamino) nicotinohydrazide] showed an IC50 ([1]; TR-FRET) of 7 nM and an EC50 ([2]; TNFα content) of 515 nM.
In the case of `CC(C)(O)[C@H](F)CNC(=O)c1cnc(-c2ccc3cc(C#N)cnn23)cc1NC1CN(S(C)(=O)=O)C1` [Example 98, (R)-6-(3-cyanopyrrolo[1,2-b]pyridazin-7-yl)-N-(2-fluoro-3-hydroxy-3-methylbutyl)-4-((1-(methylsulfonyl)azetidin-3-yl)amino)nicotinamide], the IC50 ([1]; TR-FRET) is reported as 2 nM and the EC50 ([2]; TNFα content) is reported as 358 nM.
For `CCOc1cnc(Nc2cc(-c3ccc4cc(C#N)cnn34)ncc2C(=O)NC[C@@H](F)C(C)(C)O)cn1` [Example 841, (R)-6-(3-cyanopyrrolo[1,2-b]pyridazin-7-yl)-4-((5-ethoxypyrazin-2-yl)amino)-N-(2-fluoro-3-hydroxy-3-methylbutyl)nicotinamide], the IC50 ([1]; TR-FRET) was less than 1 nM and the EC50 ([2]; TNFα by TR-FRET) was 29 nM.
Compound `CC(C)(O)[C@H](F)CNC(=O)c1cnc(-c2ccc3cc(C#N)cnn23)cc1Nc1ccc(C(F)(F)F)nc1` [Example 186, (R)-6-(3-cyanopyrrolo[1,2-b]pyridazin-7-yl)-N-(2-fluoro-3-hydroxy-3-methylbutyl)-4-((6-(trifluoromethyl)pyridin-3-yl)amino)nicotinamide] has an IC50 ([1]; TR-FRET) of 1 nM and an EC50 ([2]; TNFα content) of 145 nM.
`CC(C)(O)[C@H](F)CNC(=O)c1cnc(-c2ccc3cc(C#N)cnn23)cc1Nc1ccc(-c2nncs2)cc1` [Example 771, (R)-4-((4-(1,3,4-thiadiazol-2-yl)phenyl)amino)-6-(3-cyanopyrrolo[1,2-b]pyridazin-7-yl)-N-(2-fluoro-3-hydroxy-3-methylbutyl)nicotinamide] showed an IC50 ([1]; TR-FRET (HTRF)) of less than 1 nM and an EC50 ([2]; TNFα content) of 37 nM.
`CC(=O)N[C@H]1CC[C@@H](Nc2cc(-c3ccc4cc(C#N)cnn34)ncc2C(=O)NC[C@@H](F)C(C)(C)O)C1` [Example 307, 4-(((1R,3S)-3-acetamidocyclopentyl)amino)-6-(3-cyano-pyrrolo[1,2-b]pyridazin-7-yl)-N-((R)-2-fluoro-3-hydroxy-3-methylbutyl) nicotinamide] was tested, and the IC50 ([1]; TR-FRET) was 2 nM and the EC50 ([2]; TNFα content) was 320 nM.
Compound `CC(C)Nc1cc(-c2ccc3cc(C#N)cnn23)ncc1C(=O)NCCC1(O)CCC1` [Example 91, 6-(3-cyanopyrrolo[1,2-b]pyridazin-7-yl)-N-(2-(1-hydroxycyclobutyl)ethyl)-4-(isopropylamino) nicotinamide] has an IC50 ([1]; TR-FRET) of less than 1 nM and an EC50 ([2]; TNFα content) of 62 nM.
With `CC(=O)N1CC2(CC(Nc3cc(-c4ccc5cc(C#N)cnn45)ncc3C(=O)NC[C@@H](F)C(C)(C)O)C2)C1` [Example 447, (R)-4-((2-acetyl-2-azaspiro[3.3]heptan-6-yl)amino)-6-(3-cyano-pyrrolo[1,2-b]pyridazin-7-yl)-N-(2-fluoro-3-hydroxy-3-methylbutyl) nicotinamide] the IC50 ([1]; TR-FRET (HTRF)) was 5 nM and the EC50 ([2]; TNFα content) was 286 nM.
`CC(C)(O)[C@H](F)CNC(=O)c1cnc(-c2ccc3cc(C#N)cnn23)cc1N[C@H]1CC[C@H](CN2CCOC2=O)CC1` [Example 715, 6-(3-cyanopyrrolo[1,2-b]pyridazin-7-yl)-N-((R)-2-fluoro-3-hydroxy-3-methylbutyl)-4-(((1r,4R)-4-((2-oxooxazolidin-3-yl)methyl)cyclohexyl)amino)nicotinamide] showed an IC50 ([1]; TR-FRET (HTRF)) of 1 nM and an EC50 ([2]; TNFα content) of 57 nM.
`COCc1nnc(NC[C@H]2C[C@H](Nc3cc(-c4ccc5cc(C#N)cnn45)ncc3C(=O)NC[C@@H](F)C(C)(C)O)C2)o1` [Example 697, 6-(3-cyanopyrrolo[1,2-b]pyridazin-7-yl)-N-((R)-2-fluoro-3-hydroxy-3-methylbutyl)-4-(((1r,3R)-3-(((5-(methoxymethyl)-1,3,4-oxadiazol-2-yl)amino)methyl)cyclobutyl)amino) nicotinamide] gave an IC50 ([1]; TR-FRET (HTRF)) of 1 nM and an EC50 ([2]; TNFα content) of 171 nM.
`CC(C)(O)[C@H](F)CNC(=O)c1cnc(-c2ccc3cc(C#N)cnn23)cc1Nc1ccc(-c2cocn2)cc1` [Example 628, (R)-6-(3-cyanopyrrolo[1,2-b]pyridazin-7-yl)-N-(2-fluoro-3-hydroxy-3-methyl-butyl)-4-((4-(oxazol-4-yl)phenyl)amino) nicotinamide] was tested, and the IC50 ([1]; TR-FRET (HTRF)) was less than 1 nM and the EC50 ([2]; TNFα content) was 26 nM.
`CC(C)(O)[C@H](F)CNC(=O)c1cnc(-c2ccc3cc(C#N)cnn23)cc1Nc1ccc(-c2ccon2)cc1` [Example 773, (R)-6-(3-cyanopyrrolo[1,2-b]pyridazin-7-yl)-N-(2-fluoro-3-hydroxy-3-methylbutyl)-4-((4-(isoxazol-3-yl)phenyl)amino) nicotinamide] showed an IC50 ([1]; TR-FRET (HTRF)) of 1 nM and an EC50 ([2]; TNFα content) of 43 nM.
For `CC(C)Nc1cc(-c2ccc3cc(C#N)cnn23)ncc1C(=O)NCCNS(C)(=O)=O` [Example 88, 6-(3-cyanopyrrolo[1,2-b]pyridazin-7-yl)-4-(isopropyl-amino)-N-(2-(methylsulfonamido)ethyl) nicotinamide], the IC50 ([1]; TR-FRET) was 3 nM and the EC50 ([2]; TNFα content) was 209 nM.
Work on `COC(=O)Nc1ccc(Nc2cc(-c3ccc4cc(C#N)cnn34)ncc2C(=O)NC[C@@H](F)C(C)(C)O)cn1` [Example 888, methyl (R)-(5-((2-(3-cyanopyrrolo[1,2-b]pyridazin-7-yl)-5-((2-fluoro-3-hydroxy-3-methylbutyl)carbamoyl)pyridin-4-yl)amino)pyridin-2-yl)carbamate] yielded an IC50 ([1]; TR-FRET) of less than 1 nM and an EC50 ([2]; TNFα by TR-FRET) of 21 nM.
Compound `CC(=O)N1CCC[C@H](Nc2cc(-c3ccc4cc(C#N)cnn34)ncc2C(=O)NC[C@@H](F)C(C)(C)O)C1` [Example 256, 4-(((S)-1-acetylpiperidin-3-yl)amino)-6-(3-cyano-pyrrolo[1,2-b]pyridazin-7-yl)-N-((R)-2-fluoro-3-hydroxy-3-methylbutyl)nicotinamide] has an IC50 ([1]; TR-FRET) of 2 nM and an EC50 ([2]; TNFα content) of 389 nM.
For `CC(C)(O)[C@H](F)CNC(=O)c1cnc(-c2ccc3cc(C#N)cnn23)cc1N[C@@H]1CCOC[C@H]1F` [Example 150, 6-(3-cyanopyrrolo[1,2-b]pyridazin-7-yl)-N-((R)-2-fluoro-3-hydroxy-3-methylbutyl)-4-(((3S,4R)-3-fluorotetrahydro-2H-pyran-4-yl)amino)nicotinamide], the IC50 ([1]; TR-FRET) was less than 1 nM and the EC50 ([2]; TNFα content) was 51 nM.
`Cn1cncc1CNC(=O)c1cnc(-c2ccc3cc(C#N)cnn23)cc1NC12CCC(O)(CC1)CC2` [Example 925, 6-(3-cyanopyrrolo[1,2-b]pyridazin-7-yl)-4-((4-hydroxybicyclo[2.2.2]octan-1-yl)amino)-N-((1-methyl-1H-imidazol-5-yl)methyl)nicotinamide] gave an IC50 ([1]; TR-FRET) of 4 nM and an EC50 ([2]; TNFα by TR-FRET) of 583 nM.
For `[2H]C([2H])([2H])NC(=O)c1cnc(-c2ccc3cc(C#N)cnn23)cc1NC12CCC(O)(CC1)CC2` [Example 358, 6-(3-cyanopyrrolo[1,2-b]pyridazin-7-yl)-4-((4-hydroxybicyclo[2.2.2]octan-1-yl)amino)-N-(methyl-d3)nicotinamide], the IC50 ([1]; TR-FRET) was 3 nM and the EC50 ([2]; TNFα content) was 122 nM.
In the case of `CC(C)(O)[C@H](F)CNC(=O)c1cnc(-c2ccc3cc(C#N)cnn23)cc1N[C@H]1CCCNC1` [Example 258, 6-(3-cyanopyrrolo[1,2-b]pyridazin-7-yl)-N-((R)-2-fluoro-3-hydroxy-3-methylbutyl)-4-(((S)-piperidin-3-yl)amino)nicotinamide], the IC50 ([1]; TR-FRET) is reported as 1 nM and the EC50 ([2]; TNFα content) is reported as 83 nM.
`CC(C)Nc1cc(-c2ccc3cc(C#N)cnn23)ncc1C(=O)NCCc1ccc(S(N)(=O)=O)cc1` [Example 21, 6-(3-cyanopyrrolo[1,2-b]pyridazin-7-yl)-4-(isopropylamino)-N-(4-sulfamoylphenethyl) nicotinamide] was tested, and the IC50 ([1]; TR-FRET) was less than 1 nM and the EC50 ([2]; TNFα content) was 69 nM.
`CC(C)(O)[C@H](F)CNC(=O)c1cnc(-c2ccc3cc(C#N)cnn23)cc1N[C@@H]1C[C@@H]2CN(S(C)(=O)=O)C[C@@H]2C1` [Example 247, 6-(3-cyanopyrrolo[1,2-b]pyridazin-7-yl)-N-((R)-2-fluoro-3-hydroxy-3-methylbutyl)-4-(((3aR,5r,6aS)-2-(methylsulfonyl)octahydro-cyclopenta[c]pyrrol-5-yl)amino)nicotinamide] showed an IC50 ([1]; TR-FRET) of 6 nM and an EC50 ([2]; TNFα content) of 262 nM.
Compound `CC(C)(O)[C@H](F)CNC(=O)c1cnc(-c2ccc3cc(C#N)cnn23)cc1N[C@@H]1CCC[C@H](O)C1` [Example 65, 6-(3-cyanopyrrolo[1,2-b]pyridazin-7-yl)-N-((R)-2-fluoro-3-hydroxy-3-methylbutyl)-4-(((1R,3S)-3-hydroxycyclohexyl)amino) nicotinamide] has an IC50 ([1]; TR-FRET) of 2 nM and an EC50 ([2]; TNFα content) of 149 nM.
With `CC(C)(O)[C@H](F)CNC(=O)c1cnc(-c2ccc3cc(C#N)cnn23)cc1NC1CNC(=O)C1` (stereo partly drawn) [Example 8, 6-(3-cyanopyrrolo[1,2-b]pyridazin-7-yl)-N-((R)-2-fluoro-3-hydroxy-3-methylbutyl)-4-((5-oxopyrrolidin-3-yl)amino)nicotinamide] the IC50 ([1]; TR-FRET) was less than 1 nM and the EC50 ([2]; TNFα content) was 774 nM.
Work on `CC(C)(O)[C@H](F)CNC(=O)c1cnc(-c2ccc3cc(C#N)cnn23)cc1Nc1nc(Cc2ccccc2)ns1` [Example 335, (R)-4-((3-benzyl-1,2,4-thiadiazol-5-yl)amino)-6-(3-cyanopyrrolo[1,2-b]pyridazin-7-yl)-N-(2-fluoro-3-hydroxy-3-methylbutyl)nicotinamide] yielded an IC50 ([1]; TR-FRET) of 3 nM and an EC50 ([2]; TNFα content) of 100 nM.
In the case of `CC(C)(O)[C@H](F)CNC(=O)c1cnc(-c2ccc3cc(C#N)cnn23)cc1N[C@H]1CC[C@H](NS(C)(=O)=O)CC1` [Example 315, 6-(3-cyanopyrrolo[1,2-b]pyridazin-7-yl)-N-((R)-2-fluoro-3-hydroxy-3-methylbutyl)-4-(((1r,4R)-4-(methylsulfonamido)cyclohexyl)amino)nicotinamide], the IC50 ([1]; TR-FRET) is reported as less than 1 nM and the EC50 ([2]; TNFα content) is reported as 59 nM.
